Laboratory results taken from patent US12441726B2, “Compounds and uses thereof” (Foghorn Therapeutics Inc., priority 2020, dated 2025).

Assays:
BRG-1 = BRG-1 (Homo sapiens, UniProt P51532); assay: ATPase catalytic activity assay (ADP-Glo), BRG-1; details: for Emax: 1 h, read-out: BRG1 Max % Inhibition, ADP-Glo, 30 nM BRG-1, 400 μM ATP
BRM = BRM (Homo sapiens, UniProt P51531); assay: ATPase catalytic activity assay (ADP-Glo), BRM; details: 30 nM BRM, 400 μM ATP; for IC50: BRM ATPase: IC50 (uM)
Chain of BRM (P51531 whole entry): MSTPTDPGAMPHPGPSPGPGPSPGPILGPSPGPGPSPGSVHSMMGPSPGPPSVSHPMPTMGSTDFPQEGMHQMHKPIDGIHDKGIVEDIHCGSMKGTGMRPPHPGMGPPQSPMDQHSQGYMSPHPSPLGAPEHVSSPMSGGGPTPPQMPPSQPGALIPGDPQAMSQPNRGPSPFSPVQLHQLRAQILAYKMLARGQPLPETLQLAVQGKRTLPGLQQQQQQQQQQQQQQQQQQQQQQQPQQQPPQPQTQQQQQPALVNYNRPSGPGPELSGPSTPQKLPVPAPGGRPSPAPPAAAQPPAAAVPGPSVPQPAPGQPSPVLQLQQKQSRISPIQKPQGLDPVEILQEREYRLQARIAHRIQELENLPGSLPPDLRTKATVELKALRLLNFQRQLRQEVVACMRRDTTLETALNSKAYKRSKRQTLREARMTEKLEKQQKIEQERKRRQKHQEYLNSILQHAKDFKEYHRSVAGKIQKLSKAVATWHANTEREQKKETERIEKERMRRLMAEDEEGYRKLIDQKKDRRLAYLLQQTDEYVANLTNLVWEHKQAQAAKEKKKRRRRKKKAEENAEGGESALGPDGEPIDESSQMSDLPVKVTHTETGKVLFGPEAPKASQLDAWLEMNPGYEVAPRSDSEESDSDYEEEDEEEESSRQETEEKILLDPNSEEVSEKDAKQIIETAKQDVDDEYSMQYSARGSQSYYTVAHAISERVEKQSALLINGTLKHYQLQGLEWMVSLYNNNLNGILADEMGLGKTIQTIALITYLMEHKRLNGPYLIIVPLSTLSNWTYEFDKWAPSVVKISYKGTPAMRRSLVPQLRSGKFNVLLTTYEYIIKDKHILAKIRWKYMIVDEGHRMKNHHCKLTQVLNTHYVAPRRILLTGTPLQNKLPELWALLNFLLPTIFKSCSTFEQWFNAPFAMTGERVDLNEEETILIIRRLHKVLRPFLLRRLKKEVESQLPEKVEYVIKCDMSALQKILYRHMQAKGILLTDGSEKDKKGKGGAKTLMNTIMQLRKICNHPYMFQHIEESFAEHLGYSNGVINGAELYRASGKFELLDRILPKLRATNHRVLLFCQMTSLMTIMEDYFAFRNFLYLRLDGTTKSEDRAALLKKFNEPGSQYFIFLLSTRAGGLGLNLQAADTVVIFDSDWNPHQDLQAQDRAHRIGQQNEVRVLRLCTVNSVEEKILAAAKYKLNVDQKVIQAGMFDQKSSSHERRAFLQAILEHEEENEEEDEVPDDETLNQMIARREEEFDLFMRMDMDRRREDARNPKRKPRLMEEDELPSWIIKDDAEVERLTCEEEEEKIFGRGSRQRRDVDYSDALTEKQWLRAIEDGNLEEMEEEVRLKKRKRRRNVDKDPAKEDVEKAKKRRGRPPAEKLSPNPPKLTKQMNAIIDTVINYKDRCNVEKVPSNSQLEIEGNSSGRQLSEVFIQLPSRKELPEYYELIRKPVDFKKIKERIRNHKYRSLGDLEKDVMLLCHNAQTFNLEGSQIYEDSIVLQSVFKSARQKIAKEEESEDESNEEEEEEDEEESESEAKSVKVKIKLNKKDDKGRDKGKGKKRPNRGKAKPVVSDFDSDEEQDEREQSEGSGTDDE

Chain of BRG-1 (P51532 whole entry): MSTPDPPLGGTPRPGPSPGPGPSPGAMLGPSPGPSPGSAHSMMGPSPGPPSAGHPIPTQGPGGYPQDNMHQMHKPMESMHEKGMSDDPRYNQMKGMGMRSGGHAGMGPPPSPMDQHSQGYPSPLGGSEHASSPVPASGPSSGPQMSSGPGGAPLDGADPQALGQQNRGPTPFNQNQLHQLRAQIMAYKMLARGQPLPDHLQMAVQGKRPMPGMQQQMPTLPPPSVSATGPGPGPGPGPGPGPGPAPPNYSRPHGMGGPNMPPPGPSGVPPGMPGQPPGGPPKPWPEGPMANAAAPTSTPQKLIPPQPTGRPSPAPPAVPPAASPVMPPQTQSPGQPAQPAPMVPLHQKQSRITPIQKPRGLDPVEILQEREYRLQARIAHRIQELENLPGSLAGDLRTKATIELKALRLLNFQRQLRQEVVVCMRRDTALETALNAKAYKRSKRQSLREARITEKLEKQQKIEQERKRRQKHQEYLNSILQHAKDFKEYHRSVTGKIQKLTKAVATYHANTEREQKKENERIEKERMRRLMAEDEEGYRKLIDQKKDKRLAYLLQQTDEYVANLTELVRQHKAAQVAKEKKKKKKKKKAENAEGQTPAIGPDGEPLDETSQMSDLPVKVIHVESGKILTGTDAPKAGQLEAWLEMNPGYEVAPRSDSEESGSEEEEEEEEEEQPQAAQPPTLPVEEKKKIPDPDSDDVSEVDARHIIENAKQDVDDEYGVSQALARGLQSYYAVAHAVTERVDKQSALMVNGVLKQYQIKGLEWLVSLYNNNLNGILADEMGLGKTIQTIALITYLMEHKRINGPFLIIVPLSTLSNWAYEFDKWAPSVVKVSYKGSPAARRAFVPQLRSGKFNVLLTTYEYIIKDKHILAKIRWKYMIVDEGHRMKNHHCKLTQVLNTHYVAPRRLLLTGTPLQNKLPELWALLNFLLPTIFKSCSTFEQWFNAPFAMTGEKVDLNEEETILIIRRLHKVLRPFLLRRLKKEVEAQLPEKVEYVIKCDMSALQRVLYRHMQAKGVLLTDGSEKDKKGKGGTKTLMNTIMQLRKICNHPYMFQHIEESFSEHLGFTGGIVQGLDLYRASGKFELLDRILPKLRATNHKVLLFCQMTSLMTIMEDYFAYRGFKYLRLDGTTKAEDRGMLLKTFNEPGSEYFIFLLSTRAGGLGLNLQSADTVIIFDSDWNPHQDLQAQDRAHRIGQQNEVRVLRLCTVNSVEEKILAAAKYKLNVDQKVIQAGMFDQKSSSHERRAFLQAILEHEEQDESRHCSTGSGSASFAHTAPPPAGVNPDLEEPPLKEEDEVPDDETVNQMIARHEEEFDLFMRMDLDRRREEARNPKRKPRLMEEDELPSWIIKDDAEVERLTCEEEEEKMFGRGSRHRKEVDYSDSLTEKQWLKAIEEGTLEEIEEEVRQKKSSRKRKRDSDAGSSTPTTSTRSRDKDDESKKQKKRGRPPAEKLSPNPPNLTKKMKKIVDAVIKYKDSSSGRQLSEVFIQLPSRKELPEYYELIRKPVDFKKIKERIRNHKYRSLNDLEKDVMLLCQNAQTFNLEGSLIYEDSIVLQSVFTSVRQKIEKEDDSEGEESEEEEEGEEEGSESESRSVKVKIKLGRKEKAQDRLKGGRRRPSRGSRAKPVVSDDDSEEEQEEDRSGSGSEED

SMILES | IC50 (BRG-1) [µM] | Emax (BRG-1) [%] | BRM Max % Inhibition (BRM) [%] | IC50 (BRM) [µM]
O=C(NCc1cc(C#Cc2ccccc2)ccn1)c1ccc2c(c1)[C@](F)(C(F)F)COC2 [Compound 48] | > 1 | 11 | 67 | > 1
C[C@@]1(C#N)COCc2ccc(C(=O)NCc3cc4nc(N5CCCN(C6CC6)C5=O)ccc4cn3)cc21 [Compound 315] | > 1 | 33 | 81 | 0.1 to 0.5
C[C@@]1(C#N)COCc2ncc(C(=O)NCc3cc4cc(-c5cncc(C6CC6)n5)ccc4cn3)cc21 [Compound 181] | 0.1 to 0.5 | 97 | 100 | < 0.1
CN1CCCc2c(-c3ccc4cnc(CNC(=O)c5ccc6c(c5)[C@](C)(C#N)COC6)cc4n3)cccc21 [Compound 149] | 0.5 to 1 | 67 | 95 | 0.1 to 0.5
C[C@@]1(C#N)COCc2ncc(C(=O)NCc3cc4nc(-c5cccc(N6CCC6)n5)ccc4cn3)cc21 [Compound 210] | 0.1 to 0.5 | 96 | 99 | < 0.1
COc1cc(C2COC2)ccc1-c1ccc2cnc(CNC(=O)c3ccc4c(c3)[C@](C)(C#N)COC4)cc2n1 [Compound 175] | 0.1 to 0.5 | 86 | 97 | < 0.1
C[C@@]1(C#N)COCc2ccc(C(=O)NCc3cc([C@H]4C[C@H](c5ccccc5)C4)ccn3)cc21 [Compound 18] | > 1 | 87 | 93 | < 0.1
C[C@@]1(C#N)COCc2ccc(C(=O)NCc3cc4nn(-c5ccccc5)cc4cn3)cc21 [Compound 524] | > 1 | 50 | 95 | 0.1 to 0.5
COCCn1cc(-c2ccc3cnc(CNC(=O)c4ccc5c(c4)[C@](C)(C#N)COC5)cc3n2)c(OC)n1 [Compound 203] | > 1 | 26 | 84 | 0.1 to 0.5
Cn1ccc2ncc(-c3ccc4cnc(CNC(=O)c5ccc6c(c5)[C@](C)(C#N)COC6)cc4n3)nc21 [Compound 346] | < 0.1 | 94 | 102 | < 0.1
COc1cc(-c2ccc3cnc(CNC(=O)c4ccc5c(c4)[C@](C)(C#N)COC5)cc3n2)c(F)cn1 [Compound 446] | > 1 | 44 | 87 | 0.1 to 0.5
C[C@@]1(C#N)COCc2ncc(C(=O)NCc3cc4nc(-c5ccccc5)ccc4cn3)cc21 [Compound 122] | > 1 | 62 | 94 | 0.1 to 0.5
COc1ncccc1-c1ccc2nnc(CNC(=O)c3ccc4c(c3)[C@](C)(C#N)COC4)cc2c1 [Compound 357] | 0.1 to 0.5 | 87 | 97 | < 0.1
COc1nn(C)cc1-c1ccc2nnc(CNC(=O)c3ccc4c(c3)[C@](C)(C#N)COC4)cc2c1 [Compound 329] | 0.1 to 0.5 | 86 | 100 | < 0.1
CO[C@@H]1CCN(c2cncc(-c3ccc4cnc(CNC(=O)c5ccc6c(c5)[C@](C)(C#N)COC6)cc4c3)n2)C1 [Compound 366] | < 0.1 | 99 | 99 | < 0.1
C[C@@]1(C#N)COCc2ccc(C(=O)NCc3cc4nc(-c5cccc(N6CCOCC6)n5)ccc4cn3)cc21 [Compound 373] | < 0.1 | 100 | 103 | < 0.1
C[C@@]1(C#N)COCc2ccc(C(=O)NCc3cc([C@H]4C[C@H](c5cccc(C6CC6)n5)C4)ccn3)cc21 [Compound 77] | 0.5 to 1 | 102 | 99 | 0.1 to 0.5
Cn1ncc2ccc(-c3ccc4cnc(CNC(=O)c5ccc6c(c5)[C@](C)(C#N)COC6)cc4n3)cc21 [Compound 110] | 0.5 to 1 | 86 | 99 | < 0.1

Further lines, results first:

IC50 (BRG-1) [µM] | Emax (BRG-1) [%] | BRM Max % Inhibition (BRM) [%] | IC50 (BRM) [µM] | SMILES
> 1 | 27 | 74 | > 1 | C[C@@]1(C#N)COc2ccc(C(=O)NCc3cc4nc(-c5ccccc5)sc4cn3)cc21 [Compound 117]
0.5 to 1 | 62 | 93 | 0.1 to 0.5 | C[C@@]1(F)COCc2ccc(C(=O)NCc3cc4nc(-c5cccc(C6(O)COC6)n5)ccc4cn3)cc21 [Compound 160]
0.5 to 1 | 79 | 98 | < 0.1 | C[C@@]1(C#N)COCc2ccc(C(=O)NCc3cc4nc(-c5ccnc([C@H]6CC6(F)F)n5)ccc4cn3)cc21 [Compound 217]
0.5 to 1 | 84 | 97 | 0.1 to 0.5 | C[C@@]1(C#N)COCc2ccc(C(=O)NCc3cc(N4CCc5cc(C(F)F)ccc5C4)ccn3)cc21 [Compound 67]
0.5 to 1 | 65 | 93 | 0.1 to 0.5 | Cn1ncc2c1CN(c1ccc3cnc(CNC(=O)c4ccc5c(c4)[C@](C)(C#N)COC5)cc3n1)C2 [Compound 461]
0.5 to 1 | 83 | 95 | < 0.1 | C[C@@]1(C#N)COCc2ncc(C(=O)NCc3cc4nc(-c5cccc(C(F)F)c5)ccc4cn3)cc21 [Compound 500]
> 1 | 11 | 75 | > 1 | C[C@@]1(CO)COCc2ccc(C(=O)NCc3cc4nc(-c5ccccc5)ccc4cn3)cc21 [Compound 109]
0.1 to 0.5 | 90 | 98 | < 0.1 | C[C@@]1(F)COCc2ncc(C(=O)NCc3cc4nc(-c5cccc(N6CCC6)n5)cnc4cn3)cc21 [Compound 216]
0.1 to 0.5 | 96 | 103 | < 0.1 | CO[C@@H]1CCN(c2cncc(-c3ccc4cnc(CNC(=O)c5ccc6c(c5)[C@](C)(F)COC6)cc4c3)n2)C1 [Compound 266]
0.5 to 1 | 64 | 98 | 0.1 to 0.5 | C[C@@]1(F)COCc2ccc(C(=O)NCc3cc4nc(-c5cccc(N=S(C)(C)=O)n5)ccc4cn3)cc21 [Compound 273]
> 1 | 40 | 93 | 0.1 to 0.5 | CN(C)C(=O)c1cccc(-c2ccc3cnc(CNC(=O)c4ccc5c(c4)[C@](C)(C#N)COC5)cc3n2)c1 [Compound 490]
0.5 to 1 | 70 | 89 | 0.1 to 0.5 | CCOC(=O)C12CCC(CC1)N(c1ccc3cnc(CNC(=O)c4ccc5c(c4)[C@](C)(C#N)COC5)cc3n1)C2 [Compound 502]
0.1 to 0.5 | 85 | 100 | < 0.1 | C[C@@]1(C#N)COCc2ccc(C(=O)NCc3cc4nc(-c5cnc6cccnn56)ccc4cn3)cc21 [Compound 436]
> 1 | 73 | 96 | 0.1 to 0.5 | C[C@@]1(C#N)COCc2ccc(C(=O)NCc3cc(N4Cc5ccccc5C4)ccn3)cc21 [Compound 31]
> 1 | 40 | 88 | 0.1 to 0.5 | C[C@@]1(C#N)COCc2ccc(C(=O)NCc3cc4nc(-c5ccccn5)sc4cn3)cc21 [Compound 440]
0.1 to 0.5 | 86 | 96 | < 0.1 | C[C@@]1(F)COCc2ncc(C(=O)NCc3cc4nc(-c5cncc(C6CC6)n5)ccc4cn3)cc21 [Compound 301]
> 1 | 38 | 88 | 0.1 to 0.5 | C[C@@H]1CN(c2cccc([C@H]3C[C@@H](c4ccnc(CNC(=O)c5ccc6c(c5)[C@](C)(C#N)COC6)c4)C3)n2)C[C@H](C)O1 [Compound 82]
0.5 to 1 | 79 | 96 | < 0.1 | C[C@@]1(C#N)COCc2ccc(C(=O)NCc3cc4cc(-c5ccccc5)cnc4cn3)cc21 [Compound 511]
0.5 to 1 | 72 | 92 | 0.1 to 0.5 | COc1nn(C2CC2)cc1-c1ccc2cnc(CNC(=O)c3ccc4c(c3)[C@](C)(C#N)COC4)cc2n1 [Compound 225]
> 1 | 39 | 89 | 0.1 to 0.5 | CN1CC(c2cccc(-c3ccc4cnc(CNC(=O)c5ccc6c(c5)[C@](C)(C#N)COC6)cc4n3)n2)C1 [Compound 359]
0.1 to 0.5 | 98 | 99 | < 0.1 | CC(=O)N1CCOc2ccc(-c3ccc4cnc(CNC(=O)c5ccc6c(c5)[C@](C)(C#N)COC6)cc4n3)cc21 [Compound 475]
> 1 | 59 | 86 | 0.1 to 0.5 | Cn1ccc2ccc(-c3ccc4cnc(CNC(=O)c5ccc6c(c5)[C@](C)(C#N)COC6)cc4n3)nc2c1=O [Compound 196]
0.5 to 1 | 74 | 96 | < 0.1 | C[C@@]1(C#N)COCc2ccc(C(=O)NCc3cc4c(cn3)CCN(c3cccc(N5CCC5)n3)C4)cc21 [Compound 402]
0.5 to 1 | 77 | 96 | 0.1 to 0.5 | C[C@@]1(C#N)COCc2ccc(C(=O)NCc3cc4nc(-c5cccc(C(=O)N6CCC6)c5)ccc4cn3)cc21 [Compound 484]
> 1 | 65 | 94 | 0.1 to 0.5 | COC(=O)c1cccc(C#Cc2ccnc(CNC(=O)c3ccc4c(c3)[C@](C)(C#N)CCO4)c2)c1 [Compound 24]
